# System: 485176-168-R4-J1-PDC spheroids with HUVEC/MSC, viability
# Assay: Anticancer human tumor 485176-168-R4-J1-PDC patient-derived pancreatic adenocarcinoma cell line growth inhibition [GQUAD]
# Conditions: for IC50: curve of first compound; for viability, T/C: stronger effect = lower value
# Excerpt: DNA G-quadruplex Stabilizer Agents in Combinations in Complex Spheroids
# A high-throughput screen of multi-cell type tumor spheroids was designed to identify active combinations of DNA G-quadruplex stabilizer agents and targeted small molecules. Complex spheroids include a stromal component modeled by human endothelial cells (HUVEC) and fibroblasts modeled by human mesenchymal stem cells (MSCs). The concentration ranges selected for each drug and investigational agent were based upon clinically achievable concentrations if the clinical Cmax of the agent was known.
# Compounds. The drugs and investigational agents: pidnarulex (CX-5461; NSC782164), APTO-253 (NSC789042), BRACO-19 (NSC847499), peposertib (NSC802822), ceralasertib (NSC780249), elimusertib (NSC800525), camonsertib (NSC841442), AZD-1390 (NSC803789), olaparib (NSC753686), talazoparib (NSC767125), ART-558 (NSC835418), sotorasib (NSC818433), MRTX-1133 (NSC836407), SN-38 (NSC673596), topotecan (NSC609699), etoposide (NSC141540), doxorubicin (NSC123127), gemcitabine (NSC613327), 5-fluorouracil (NSC19893), paclitaxel (NSC125973), vemurafenib (NSC761431), panobinostat (NSC761190), R-306465 (JNJ-16241199; NSC773264), adavosertib (NSC754352), TP-3654 (NSC805149), carboplatin (NSC241240), KSQ-4279 (NSC840948), and staurosporine (NSC755774) were obtained from the National Cancer Institute (NCI) Developmental Therapeutics Program Chemical Repository (34). The FDA-approved anticancer drug set is available from the NCI Developmental Therapeutics Program. […] The stock solutions were prepared in dimethyl sulfoxide (DMSO, Sigma-Aldrich, St. Louis, MO, cat. D2650) at 800-fold the tested concentration and stored at -70 degrees C prior to their use. All drugs and investigational agents were tested over a range starting from a high concentration at or near the clinical Cmax and decreasing in half-log increments. If the clinical Cmax for an agent had not been determined, the highest concentration tested was 10 microM.
# 2.3 Cell Culture. All cells were maintained in an incubator at 37 degrees C and 5% CO2 with 95% humidity. The PDC lines were cultured according to standard operating procedures established by the NCI PDMR. All PDCs were thawed and cultured in Matrigel-coated flasks prepared with a working solution of 1X Ham's F-12 nutrient mix, without supplementation (Invitrogen, cat. 11765054), 100 U/mL penicillin-streptomycin (Invitrogen, cat. 15140122), and 2.5% Matrigel (Corning Inc., cat. 354248) for the first three passages. The 857933-349-R-J2-PDC line was cultured in 6C/Colon 1B media, which includes advanced DMEM/F-12 (Thermo Fisher Scientific, cat. 12634028), 10 mM HEPES (Thermo Fisher Scientific, cat. 15630080), 1X GlutaMAX supplement (Thermo Fisher Scientific, cat. 35050061), 0.1 mg/mL primocin (InvivoGen, cat. ant-pm-2), 10% defined fetal bovine serum, heat inactivated (HyClone Laboratories Inc., cat. SH30070.03HI), 50% L-WRN conditioned media (ATCC, cat. CRL-3276), 1.25 mM N-Acetyl-L-cysteine (Sigma-Aldrich, cat. A9165), 10 mM nicotinamide (Sigma-Aldrich, cat. N0636), 1X B-27 supplement (Thermo Fisher Scientific, cat. 17504044), 1X N-2 supplement (Thermo Fisher Scientific, cat. 17502048), 10 microM Y-27632 dihydrochloride (Tocris Bioscience, cat. 1254), and 50 ng/mL human EGF recombinant protein (Thermo Fisher Scientific, cat. PHG0311). The 485176-168-R4-J1-PDC line was cultured in Panc media, which includes all 6C/Colon 1B media components plus 100 ng/mL human FGF-10 (Thermo Fisher Scientific, cat. 100-26), 500 nM SB-431542 (Selleckchem, cat. S1067), and gastrin (Tocris, cat. 3006).
# […]
# [1] = second compound 0.0316 µM, first compound 0.0316 µM
# [2] = second compound 0.0316 µM, first compound 0.1 µM
# [3] = second compound 0.0316 µM, first compound 0.316 µM
# [4] = second compound 0.0316 µM, first compound 1 µM
# [5] = second compound 0.0316 µM, first compound 3.16 µM
# [6] = second compound 0.0316 µM, first compound 10 µM
# [7] = second compound 0.1 µM, first compound 0.0316 µM
# [8] = second compound 0.1 µM, first compound 0.1 µM
# [9] = second compound 0.1 µM, first compound 0.316 µM
# [10] = second compound 0.1 µM, first compound 1 µM
# [11] = second compound 0.1 µM, first compound 3.16 µM
# [12] = second compound 0.1 µM, first compound 10 µM
# [13] = second compound 0.316 µM, first compound 0.0316 µM
# [14] = second compound 0.316 µM, first compound 0.1 µM
# [15] = second compound 0.316 µM, first compound 0.316 µM
# [16] = second compound 0.316 µM, first compound 1 µM
# [17] = second compound 0.316 µM, first compound 3.16 µM
# [18] = second compound 0.316 µM, first compound 10 µM
# [19] = second compound 1 µM, first compound 0.0316 µM
# [20] = second compound 1 µM, first compound 0.1 µM
# [21] = second compound 1 µM, first compound 0.316 µM
# [22] = second compound 1 µM, first compound 1 µM
# [23] = second compound 1 µM, first compound 3.16 µM
# [24] = second compound 1 µM, first compound 10 µM
# [25] = second compound 3.16 µM, first compound 0.0316 µM
# [26] = second compound 3.16 µM, first compound 0.1 µM
# [27] = second compound 3.16 µM, first compound 0.316 µM
# [28] = second compound 3.16 µM, first compound 1 µM
# [29] = second compound 3.16 µM, first compound 3.16 µM
# [30] = second compound 3.16 µM, first compound 10 µM
# [31] = second compound 10 µM, first compound 0.0316 µM
# [32] = second compound 10 µM, first compound 0.1 µM
# [33] = second compound 10 µM, first compound 0.316 µM
# [34] = second compound 10 µM, first compound 1 µM
# [35] = second compound 10 µM, first compound 3.16 µM
# [36] = second compound 10 µM, first compound 10 µM
# 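Also: spheroids exposed to compounds for seven days before readout.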
# 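For viability, T/C in this document: percent viability relative to DMSO vehicle control wells as 100%.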
structure (smiles),measurement,setting,value
C=CCn1c(=O)c2cnc(Nc3ccc(N4CCN(C)CC4)cc3)nc2n1-c1cccc(C(C)(C)O)n1 + CN(C)c1ccc(Nc2c3ccc(NC(=O)CCN4CCCC4)cc3nc3cc(NC(=O)CCN4CCCC4)ccc23)cc1,IC50,second compound 0.0316 µM,554 nM
same,IC50,second compound 0.1 µM,544 nM
same,IC50,second compound 0.316 µM,344 nM
same,IC50,second compound 1 µM,450 nM
same,IC50,second compound 3.16 µM,507 nM
same,IC50,second compound 10 µM,459 nM
same,"viability, T/C",[1],98.2%
same,"viability, T/C",[2],89.9%
same,"viability, T/C",[3],79.2%
same,"viability, T/C",[4],19.5%
same,"viability, T/C",[5],7.62%
same,"viability, T/C",[6],4.64%
same,"viability, T/C",[7],101%
same,"viability, T/C",[8],88.2%
same,"viability, T/C",[9],76%
same,"viability, T/C",[10],21.3%
same,"viability, T/C",[11],8.2%
same,"viability, T/C",[12],4.88%
same,"viability, T/C",[13],116%
same,"viability, T/C",[14],93.7%
same,"viability, T/C",[15],53.8%
same,"viability, T/C",[16],17.2%
same,"viability, T/C",[17],6.62%
same,"viability, T/C",[18],4.69%
same,"viability, T/C",[19],88.7%
same,"viability, T/C",[20],84.9%
same,"viability, T/C",[21],62.5%
same,"viability, T/C",[22],21.5%
same,"viability, T/C",[23],10.6%
same,"viability, T/C",[24],4.67%
same,"viability, T/C",[25],93.1%
same,"viability, T/C",[26],92.8%
same,"viability, T/C",[27],71.8%
same,"viability, T/C",[28],18.2%
same,"viability, T/C",[29],12.4%
same,"viability, T/C",[30],4.45%
same,"viability, T/C",[31],84.4%
same,"viability, T/C",[32],75.1%
same,"viability, T/C",[33],62.5%
same,"viability, T/C",[34],26.4%
same,"viability, T/C",[35],9.3%
same,"viability, T/C",[36],6.12%
CC1COCCN1c1cc(C2(S(C)(=N)=O)CC2)nc(-c2ccnc3[nH]ccc23)n1 (centres undefined) + CN(C)c1ccc(Nc2c3ccc(NC(=O)CCN4CCCC4)cc3nc3cc(NC(=O)CCN4CCCC4)ccc23)cc1,IC50,second compound 0.0316 µM,2210 nM
same,IC50,second compound 0.1 µM,1870 nM
same,IC50,second compound 0.316 µM,2110 nM
same,IC50,second compound 1 µM,2070 nM
same,IC50,second compound 3.16 µM,1990 nM
same,IC50,second compound 10 µM,1490 nM
same,"viability, T/C",[1],92.4%
same,"viability, T/C",[2],85.2%
same,"viability, T/C",[3],86.2%
same,"viability, T/C",[4],75%
same,"viability, T/C",[5],38.7%
same,"viability, T/C",[6],15.9%
same,"viability, T/C",[7],100%
same,"viability, T/C",[8],81.9%
same,"viability, T/C",[9],84.6%
same,"viability, T/C",[10],69.9%
same,"viability, T/C",[11],33.6%
same,"viability, T/C",[12],17.6%
same,"viability, T/C",[13],103%
same,"viability, T/C",[14],101%
same,"viability, T/C",[15],97.8%
same,"viability, T/C",[16],76.3%
same,"viability, T/C",[17],35.7%
same,"viability, T/C",[18],15.6%
same,"viability, T/C",[19],115%
same,"viability, T/C",[20],85.6%
same,"viability, T/C",[21],109%
same,"viability, T/C",[22],70.2%
same,"viability, T/C",[23],38.5%
same,"viability, T/C",[24],18%
same,"viability, T/C",[25],90.8%
same,"viability, T/C",[26],99.2%
same,"viability, T/C",[27],97.5%
same,"viability, T/C",[28],69.1%
same,"viability, T/C",[29],37.1%
same,"viability, T/C",[30],15.8%
same,"viability, T/C",[31],88.2%
same,"viability, T/C",[32],100%
same,"viability, T/C",[33],81.2%
same,"viability, T/C",[34],59.5%
same,"viability, T/C",[35],32.8%
same,"viability, T/C",[36],20.3%

# Reference: PubChem BioAssay AID2060509 (Molecular Pharmacology Branch, DTP, NCI, 2025)
